# Data: US6838436B1, “Inhibitors of proteasomal activity for stimulating bone growth” (Osteoscreen Inc., priority 1998, dated 2005)
# Like-named read-outs stand apart in the source and are kept apart here. Where a SMILES comes first, the peptide text is derived from it. [ ]: non-standard residue; d: D form. Nle = CCCC[C@H](N)C(=O)O
# What was measured:
# [1] = system: mouse BMP2 promoter; assay: High throughput screen (ABA assay): BMP2 promoter-luciferase reporter in 2T3-BMP-2-LUC osteoblast cells; format: cell-based; settings: for EC50: Mus musculus, Osteoblast, read-out: Luciferase Activity (ED50-μM)
# Description: 1995, the entire contents of which are incorporated herein by reference. This assay is also described as a portion of a study of immortalized murine osteoblasts (derived from a mouse expressing a transgene composed of a BMP2 promoter driving expression of T-antigen) in Ghosh-Choudhery, N., et al., Endocrinology (1996) 137:331-39. In this study, the immortalized cells were stably transfected with a plasmid containing a luciferase reporter gene driven by a mouse BMP2 promoter (−2736/114 bp), and responded in a dose-dependent manner to recombinant human BMP2.
# Briefly, the assay utilizes cells transformed permanently or transiently with constructs in which the promoter of a bone morphogenetic protein, specifically BMP2 or BMP4, is coupled to a reporter gene, typically luciferase. These transformed cells are then evaluated for the production of the reporter gene product; compounds that activate the BMP promoter will drive production of the reporter protein, which can be readily assayed. Many thousands of compounds have been subjected to this rapid screening technique, and only a very small percentage are able to elicit a level of expression of reporter gene 5-fold greater than that produced by vehicle. […] The active compounds (“BMP promoter-active compounds” or “active compounds”) are useful in promoting bone or cartilage growth, and thus in the treatment of vertebrates in need of bone or cartilage growth.
# Thousands of compounds have been tested in the assay system set forth in U.S. Ser. No. 08/458,434, filed 2 Jun. 1995, and incorporated herein by reference. […] In this screen, the standard positive control was the compound 59-0008 (also denoted “OS8”), which is of the formula: [drawing 22]
# In more detail, the 2T3-BMP-2-LUC cells, a stably transformed osteoblast cell line described in Ghosh-Choudhury et al. Endocrinology (1996) 137:331-39, referenced above, was employed. The cells were cultured using α-MEM, 10% FCS with 1% penicillin/streptomycin and 1% glutamine (“plating medium”), and were split 1:5 once per week. For the assay, the cells were resuspended in a plating medium containing 4% FCS, plated in microtiter plates at a concentration of 5×10^3 cells (in 50 μl)/well, and incubated for 24 hours at 37° C. in 5% CO2. To initiate the assay, 50 μl of the test compound or the control in DMSO was added at 2× concentration to each well, so that the final volume was 100 μl. The final serum concentration was 2% FCS, and the final DMSO concentration was 1%. Compound 59-0008 (10 μM) was used as a positive control.
# The treated cells were incubated for 24 hours at 37° C. and 5% CO2. The medium was then removed, and the cells were rinsed three times with PBS. After removal of excess PBS, 25 μl of 1× cell culture lysing reagent (Promega #E153A) was added to each well and incubated for at least ten minutes. Optionally, the plates/samples could be frozen at this point. To each well was added 50 μl of luciferase substrate (Promega #E152A; 10 ml Promega luciferase assay buffer per 7 mg Promega luciferase assay substrate). Luminescence was measured on an automated 96-well luminometer, and was expressed as either picograms of luciferase activity per well or as picograms of luciferase activity per microgram of protein.
# Accordingly, other tested compounds can be evaluated at various concentrations, and the results compared to the results obtained for 59-0008 at 10 μM (which value would be normalized to 100). Alternatively, the reactivity of a compound to be tested can be compared directly to a negative control containing no compound.
# [2] = molecular target: T1, 20S thermophila proteasome (Methanosarcina thermophila, UniProt Q9P992); assay: biochemical
# T1 construct: purchased CalBiochem, San Diego, Calif
# T1 sequence (Q9P992 10-210): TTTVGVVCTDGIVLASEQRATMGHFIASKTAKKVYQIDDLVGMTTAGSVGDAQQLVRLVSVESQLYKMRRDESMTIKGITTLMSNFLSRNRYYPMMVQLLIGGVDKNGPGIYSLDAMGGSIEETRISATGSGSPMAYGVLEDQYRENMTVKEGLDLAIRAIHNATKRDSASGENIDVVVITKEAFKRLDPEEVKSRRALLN
# T1 sequence (Q59565 1-247 partner): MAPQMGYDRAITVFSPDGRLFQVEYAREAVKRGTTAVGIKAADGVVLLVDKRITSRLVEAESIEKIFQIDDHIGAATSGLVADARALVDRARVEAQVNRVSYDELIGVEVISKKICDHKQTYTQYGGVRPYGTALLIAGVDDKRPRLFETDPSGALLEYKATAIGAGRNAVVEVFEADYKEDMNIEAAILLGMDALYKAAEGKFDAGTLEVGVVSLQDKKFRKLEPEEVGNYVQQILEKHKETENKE
# Method: The assay involves incubating the potential inhibitor with 20S thermophila proteasomes which, in purified form, are commercially available, with a fluorogenic peptide substrate. The presence of an inhibitor will reduce the amount of fluorescence generated by the action of the proteasome fraction on the fluorogenic peptide. This assay is described in further detail in Coux, O., et al., N Rev Biochem (1996) 65:801; Adams, J., et al., Cancer Res (1999) 59:2615; and Craiu, A., et al., J Biol Chem (1997) 272:13437. Further reports are set forth in Hilt, W., et al., Trans Biochem Sci (1996) 21:96; Peters, J., Trends Biochem Sci (1994) 19:377; Maupin-Furlow, J. A., et al., J Biol Chem (1995) 270:28617; and Jensen, T. J., et al., Cell (1995) 83:129. Fluorogenic substrates and purified proteasomes are available, for example, from CalBiochem, San Diego, Calif.
# Purified 20S thermophila proteasomes and the fluorogenic peptide substrate Suc-Leu-Leu-Val-Tyr-AMC (SEQ ID NO:3) are available from CalBiochem, San Diego, Calif. Briefly, serial dilutions of the inhibitor to be tested were mixed with proteasome solution at a concentration of proteasome of 0.01 mg/ml. After 30 min incubation at 37° C., substrate solution at a final concentration of 25-30 μg/ml was added and the mixture incubated at 37° C. and then read at 15 min, 30 min, and 60 min in a Fluoroscan instrument. The percentage diminution in fluorescence in the presence as compared to the absence of inhibitor is then calculated.
# [3] = system: proteasomal activity; settings: cited from earlier work
# [4] = system: hair follicles; assay: Induction of anagen in hair follicles in vivo (Example 12); set-up: species or system C57 black mice
# Method: Inhibitors of the proteasomal chymotrypsin-like activity were treated for their capacity to induce transit of hair follicles into anagen in vivo in C57 black mice eight weeks of age.
# [5] = system: neonatal mouse calvaria; assay: Neonatal mouse calvaria assay (in vitro / ex vivo) for bone formation; format: cell-based, ICR Swiss white mouse; settings: for EC50: Mus musculus, read-out: Bone Formation (ED50-μM)
# Method: An assay for bone resorption or bone formation is similar to that described by Gowen M. & Mundy G., J Immunol (1986) 136:2478-82. Briefly, four days after birth, the front and parietal bones of ICR Swiss white mouse pups are removed by microdissection and split along the sagittal suture. In an assay for resorption, the bones are incubated in BGJb medium (Irvine Scientific, Santa Ana, Calif.) plus 0.02% (or lower concentration) β-methylcyclodextrin, wherein the medium also contains test or control substances. The medium used when the assay is conducted to assess bone formation is Fitton and Jackson Modified BGJ Medium (Sigma) supplemented with 6 μg/ml insulin, 6 μg/ml transferrin, 6 ng/ml selenous acid, calcium and phosphate concentrations of 1.25 and 3.0 mM, respectively, and ascorbic acid to a concentration of 100 μg/ml is added every two days. The incubation is conducted at 37° C. in a humidified atmosphere of 5% CO2 and 95% air for 96 hours.
# Following this, the bones are removed from the incubation media and fixed in 10% buffered formalin for 24-48 hours, decalcified in 14% EDTA for 1 week, processed through graded alcohols; and embedded in paraffin wax. Three […] sections of the calvaria are prepared. Representative sections are selected for histomorphometric assessment of bone formation or bone resorption. Bone changes are measured on sections cut 200 μm apart. Osteoblasts and osteoclasts are identified by their distinctive morphology.
# Selected compounds and appropriate controls were assayed in vitro (ex vivo) for bone formation activity (described above in “Techniques for Neonatal Mouse Calvaria Assay (in vitro)). Histomorphometrical assessments of ex vivo calvaria were carried out using an OsteoMetrics bone morphometry measurement program, according to the manufacturer's instructions. Measurements were determined using either a 10- or 20-fold objective with a standard point counting eyepiece graticule.
# New bone formation was determined (using a 10× objective) by measuring the new bone area formed in one field in 3 representative sections of each bone (4 bones per group). Each measurement was carried out ½ field distance from the end of the suture. Both total bone and old bone area were measured. Data were expressed as new bone area in μm^2.
# Osteoblast numbers are determined by point counting. The number of osteoblast cells lining the bone surface on both sides of the bone are counted in one field using a 20× objective. Data are expressed as osteoblast numbers/mm of bone surface. […]
# [6] = system: hair follicles of skin explants; assay: Cultured skin explants from 5 day old mice, hair follicle diameter and elongation (Example 11); format: cell-based, C3H/HeS1c mice; settings: 10 μM; 72 hours
# Method: Cultured skin explants from 5 day old mice cultured for 72 hours were treated with proteasome inhibitors, non-proteasomal proteases and non-proteasomal inhibitors of NF-κB and effects on hair follicle diameter and follicle elongation were determined according to the method of Kamiya, T., et al., J Derm Sci (1998) 17:54-60. Skin slices from the dorsal skin of 5 day old C3H/HeS1c mice were cultured in 1 ml of αMEM and 0.1% BSA for 72 hours and then assessed for changes in hair follicle diameter and hair elongation under an inverted microscope, using image analysis. […] Thus, the chymotrypsin-like activity of the proteasome is the catalytic component of the proteasome that is responsible for the effects of these compounds on hair follicle differentiation and hair growth. Only proteasome inhibitors had discernable effects on these parameters.
# [7] = read-out: Proteasome Activity (ED50-μM)
compound,measurement,setting,value
"c1ccc(N=NC2=NNc3ccccc3S2)cc1 [59-0008, 3-phenylazo-1H-4,1,2-benzothiadiazine]",concentration of maximal reactivity,[1],3 to 10 µM
"CCCC[C@@H](C=O)NC(=O)[C@H](CC(C)C)NC(=O)[C@H](CC(C)C)NC(C)=O [ALLN, N-Acetyl-Leu-Leu-Nle-CHO] (Ac-Leu-Leu-[Nle]-aldehyde)",EC50,[2]; [7],1.5 µM
same,EC50,[1],10 µM
same,effects on proteasomal activity,[3],no effects on proteasomal activity
same,effect on hair follicles,[4]; dose not given,had no effect on hair follicles
COc1cc(CNC(=O)CCCC/C=C/C(C)C)ccc1O [Capsaicin],EC50,[2],30 µM
same,new bone formation in the in vitro calvarial assay,[5],appeared negative
same,activity in the ABA assay compared with proteasome inhibitors,[1],less active
same,response in the high throughput luciferase screen,[1],do not give promising responses
CN1C(=O)C23CC4=CC=C[C@H](O)C4N2C(=O)C1(CO)SS3 (stereo partly shown) [Gliotoxin],new bone formation in the in vitro calvarial assay,[5],did demonstrate the ability to stimulate bone growth
same,EC50,[5],10 µM
same,response in the high throughput luciferase screen,[1],do not give promising responses
CC(C)C[C@H](NC(=O)[C@H](CC(C)C)NC(=O)[C@H](CC(C)C)NC(=O)OCc1ccccc1)B(O)O [MG262],EC50,[2]; [7],0.07 µM
same,EC50,[5]; calvarial assay in vitro,0.1 µM
same,EC50,[1],0.1 µM
"CSCCC(C=O)NC(=O)C(CC(C)C)NC(=O)C(CC(C)C)NC(C)=O (stereo not drawn) [N-Acetyl-Leu-Leu-Meth-CHO, N-Acetyl-Leu-Leu-Met-CHO] (Ac-Leu-Leu-Met-aldehyde; configuration not given here)",EC50,[2],4 µM
"S=C(S)N1CCCC1 [PDTC, 1-pyrrolidinecarbodithioic acid]",new bone formation in the in vitro calvarial assay,[5],appeared negative
same,effect on follicle growth,[6],did not significantly affect follicle growth
same,response in the high throughput luciferase screen,[1],do not give promising responses
same,effects on proteasomal activity,[3],no effects on proteasomal activity
same,effect on hair follicles,[4]; dose not given,had no effect on hair follicles
"O=C(NC1=CC(=O)c2ccccc2C1=O)c1ccccc1 [PPM-18, 2-benzoylamino-1,4-naphthoguinone]",effects on proteasomal activity,[3],no effects on proteasomal activity
same,effect on hair follicles,[4]; dose not given,had no effect on hair follicles
"CC(=O)CCCCn1c(=O)c2c(ncn2C)n(C)c1=O [PTX, pentoxyfilline]",lowest concentration enhancing new bone formation (as low as),[5],0.1 μm
same,new bone formation in the in vitro calvarial assay,[5],active
same,increase of new bone area,[5]; 100 μm,~3 times that of control
same,enhancement of new bone area over control,[5]; concentration of 10 μm,over 100%
COc1cc(/C=C/C(=O)CC(=O)/C=C/c2ccc(O)c(OC)c2)ccc1O [curcumin],activity in the ABA assay compared with proteasome inhibitors,[1],less active
CC[C@H](C)C(=O)O[C@H]1C[C@@H](C)C=C2C=C[C@H](C)[C@H](CC[C@@H]3C[C@@H](O)CC(=O)O3)[C@H]21 [lovastatin],effects on proteasomal activity,[3],no effects on proteasomal activity
same,effect on hair follicles,[4]; injected locally into the subcutaneous tissue in sufficient concentrations to cause local periosteal bone formation,had no effect on hair follicles
C=C(C)[C@]12C[C@@H](C)[C@@]34O[C@](Cc5ccccc5)(O[C@@H]1[C@@H]3C=C(COC(=O)Cc1ccc(O)c(OC)c1)C[C@]1(O)C(=O)C(C)=C[C@@H]41)O2 [resiniferatoxin],activity in the ABA assay compared with proteasome inhibitors,[1],less active
CC[C@H](CO)Nc1nc(NCc2ccccc2)c2ncn(C(C)C)c2n1 [roscovitine],new bone formation in the in vitro calvarial assay,[5],appeared negative
same,effect on follicle growth,[6],did not significantly affect follicle growth
same,response in the high throughput luciferase screen,[1],do not give promising responses
